One assay has as its target T1, AspRS (Thermus thermophilus, UniProt Q5SKD2).
T1 construct: gene aspS1
The experiment in a line: X-ray crystal structure ([…] Å), soaked crystals. Type of assay: binding.

The next assay concerns the target T2, IleRS (Escherichia coli, UniProt P00956).
T2 construct: gene ileS
The experiment in a line: radiolabel aminoacyl transfer assay with purified enzyme (Kiapp). Type of assay: biochemical.

A further assay deals with T3, TyrRS (Escherichia coli, UniProt P0AGJ9).
T3 construct: gene tyrS
T3 sequence (P0AGJ9 2-424): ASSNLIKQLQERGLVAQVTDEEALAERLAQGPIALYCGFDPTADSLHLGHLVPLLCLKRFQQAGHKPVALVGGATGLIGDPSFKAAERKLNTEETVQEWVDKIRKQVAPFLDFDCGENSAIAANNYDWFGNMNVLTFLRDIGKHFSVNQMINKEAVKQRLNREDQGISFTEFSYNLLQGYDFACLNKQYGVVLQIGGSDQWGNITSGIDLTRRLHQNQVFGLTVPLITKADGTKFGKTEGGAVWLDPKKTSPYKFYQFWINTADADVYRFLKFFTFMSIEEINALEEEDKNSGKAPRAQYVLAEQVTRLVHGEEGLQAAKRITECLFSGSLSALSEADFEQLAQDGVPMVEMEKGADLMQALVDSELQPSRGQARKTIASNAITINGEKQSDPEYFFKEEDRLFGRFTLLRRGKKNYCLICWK
The experiment in a line: ([…] Å); radiolabel aminoacylation inhibition (Kiapp). Type of assay: biochemical.

Assay [1] concerns the target T4, SerRS (Escherichia coli, UniProt P0A8L1).
T4 construct: gene serS
The experiment in a line: radiolabel aminoacyl transfer assay, % inhibition at […]. Type of assay: biochemical.

In assay [2] the target is T5, SerRS (Klebsiella pneumoniae, UniProt W9BNU9).
T5 construct: gene serS
T5 sequence (W9BNU9 1-430): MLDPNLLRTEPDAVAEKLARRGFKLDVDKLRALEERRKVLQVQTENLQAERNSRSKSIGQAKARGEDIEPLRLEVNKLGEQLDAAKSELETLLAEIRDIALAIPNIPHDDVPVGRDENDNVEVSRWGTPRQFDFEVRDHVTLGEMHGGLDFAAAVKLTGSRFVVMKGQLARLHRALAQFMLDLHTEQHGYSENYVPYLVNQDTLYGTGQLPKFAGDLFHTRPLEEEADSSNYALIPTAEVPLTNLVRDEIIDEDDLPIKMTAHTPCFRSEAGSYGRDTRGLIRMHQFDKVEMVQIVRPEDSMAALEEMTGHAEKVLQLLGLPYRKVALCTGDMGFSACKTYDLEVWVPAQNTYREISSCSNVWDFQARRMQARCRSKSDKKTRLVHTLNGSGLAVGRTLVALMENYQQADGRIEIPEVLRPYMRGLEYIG
Kind of assay: X-ray crystal structure ([…] Å), soaked crystals. Type of assay: binding.

Assay [3] addresses T6, LeuRS (Escherichia coli, UniProt P07813).
T6 construct: gene leuS
The experiment in a line: radiolabel aminoacyl transfer assay with purified enzyme (Kiapp). Format: biochemical.

Assay [4] has as its target T7, LeuRS (Neisseria gonorrhoeae, UniProt B4RNT1).
T7 construct: gene leuS
Kind of assay: X-ray crystal structure ([…] Å), soaked crystals. Type of assay: binding.

The structures appear in SMILES notation.

T1 sequence (Q5SKD2 whole entry): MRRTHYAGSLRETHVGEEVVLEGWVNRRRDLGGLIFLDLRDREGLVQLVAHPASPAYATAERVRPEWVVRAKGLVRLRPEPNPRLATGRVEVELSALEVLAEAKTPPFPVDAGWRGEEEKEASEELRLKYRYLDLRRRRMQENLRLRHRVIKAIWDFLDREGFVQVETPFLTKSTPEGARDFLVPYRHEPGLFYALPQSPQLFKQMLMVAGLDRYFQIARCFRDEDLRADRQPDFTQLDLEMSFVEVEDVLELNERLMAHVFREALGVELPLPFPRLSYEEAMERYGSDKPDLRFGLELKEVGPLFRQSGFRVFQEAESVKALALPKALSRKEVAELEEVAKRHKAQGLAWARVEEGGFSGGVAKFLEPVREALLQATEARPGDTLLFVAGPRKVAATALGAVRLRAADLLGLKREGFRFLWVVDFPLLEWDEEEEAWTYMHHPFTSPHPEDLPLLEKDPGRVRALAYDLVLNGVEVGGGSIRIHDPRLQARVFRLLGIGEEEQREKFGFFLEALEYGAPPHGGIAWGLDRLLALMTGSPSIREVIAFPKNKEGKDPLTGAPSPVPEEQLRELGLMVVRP
T4 sequence (P0A8L1 whole entry): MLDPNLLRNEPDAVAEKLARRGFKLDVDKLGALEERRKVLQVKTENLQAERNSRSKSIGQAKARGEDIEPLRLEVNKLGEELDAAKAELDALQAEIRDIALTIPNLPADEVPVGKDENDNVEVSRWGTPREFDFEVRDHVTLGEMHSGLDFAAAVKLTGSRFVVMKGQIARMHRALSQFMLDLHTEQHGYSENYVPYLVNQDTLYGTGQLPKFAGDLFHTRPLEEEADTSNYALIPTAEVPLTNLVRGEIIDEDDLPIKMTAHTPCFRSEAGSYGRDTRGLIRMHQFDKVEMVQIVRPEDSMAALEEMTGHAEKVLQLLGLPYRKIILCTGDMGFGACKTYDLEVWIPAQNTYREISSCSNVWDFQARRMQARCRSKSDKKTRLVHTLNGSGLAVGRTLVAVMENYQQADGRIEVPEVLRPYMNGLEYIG
T6 sequence (P07813 whole entry): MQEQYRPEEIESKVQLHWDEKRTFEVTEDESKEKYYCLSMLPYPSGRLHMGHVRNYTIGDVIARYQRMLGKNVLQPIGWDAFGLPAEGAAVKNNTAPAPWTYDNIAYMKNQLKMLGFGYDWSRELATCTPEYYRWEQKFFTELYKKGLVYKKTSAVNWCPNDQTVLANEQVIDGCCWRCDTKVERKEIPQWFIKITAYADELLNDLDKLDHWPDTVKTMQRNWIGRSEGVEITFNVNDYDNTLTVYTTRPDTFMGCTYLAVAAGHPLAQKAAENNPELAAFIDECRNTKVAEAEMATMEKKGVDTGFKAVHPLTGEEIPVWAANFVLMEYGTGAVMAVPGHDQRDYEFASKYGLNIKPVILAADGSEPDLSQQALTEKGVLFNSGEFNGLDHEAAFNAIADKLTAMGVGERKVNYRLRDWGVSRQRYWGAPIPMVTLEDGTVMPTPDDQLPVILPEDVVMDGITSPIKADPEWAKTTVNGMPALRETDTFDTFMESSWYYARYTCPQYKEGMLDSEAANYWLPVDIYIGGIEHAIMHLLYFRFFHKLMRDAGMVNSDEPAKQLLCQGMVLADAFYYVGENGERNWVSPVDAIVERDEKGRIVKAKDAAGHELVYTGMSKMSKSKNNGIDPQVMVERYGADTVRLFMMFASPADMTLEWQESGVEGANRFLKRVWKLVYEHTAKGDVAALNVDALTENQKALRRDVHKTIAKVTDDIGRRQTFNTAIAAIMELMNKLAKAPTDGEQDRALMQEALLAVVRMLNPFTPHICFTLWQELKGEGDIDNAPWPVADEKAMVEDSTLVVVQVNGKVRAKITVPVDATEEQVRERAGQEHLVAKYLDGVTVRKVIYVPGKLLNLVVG
T2 sequence (P00956 2-938): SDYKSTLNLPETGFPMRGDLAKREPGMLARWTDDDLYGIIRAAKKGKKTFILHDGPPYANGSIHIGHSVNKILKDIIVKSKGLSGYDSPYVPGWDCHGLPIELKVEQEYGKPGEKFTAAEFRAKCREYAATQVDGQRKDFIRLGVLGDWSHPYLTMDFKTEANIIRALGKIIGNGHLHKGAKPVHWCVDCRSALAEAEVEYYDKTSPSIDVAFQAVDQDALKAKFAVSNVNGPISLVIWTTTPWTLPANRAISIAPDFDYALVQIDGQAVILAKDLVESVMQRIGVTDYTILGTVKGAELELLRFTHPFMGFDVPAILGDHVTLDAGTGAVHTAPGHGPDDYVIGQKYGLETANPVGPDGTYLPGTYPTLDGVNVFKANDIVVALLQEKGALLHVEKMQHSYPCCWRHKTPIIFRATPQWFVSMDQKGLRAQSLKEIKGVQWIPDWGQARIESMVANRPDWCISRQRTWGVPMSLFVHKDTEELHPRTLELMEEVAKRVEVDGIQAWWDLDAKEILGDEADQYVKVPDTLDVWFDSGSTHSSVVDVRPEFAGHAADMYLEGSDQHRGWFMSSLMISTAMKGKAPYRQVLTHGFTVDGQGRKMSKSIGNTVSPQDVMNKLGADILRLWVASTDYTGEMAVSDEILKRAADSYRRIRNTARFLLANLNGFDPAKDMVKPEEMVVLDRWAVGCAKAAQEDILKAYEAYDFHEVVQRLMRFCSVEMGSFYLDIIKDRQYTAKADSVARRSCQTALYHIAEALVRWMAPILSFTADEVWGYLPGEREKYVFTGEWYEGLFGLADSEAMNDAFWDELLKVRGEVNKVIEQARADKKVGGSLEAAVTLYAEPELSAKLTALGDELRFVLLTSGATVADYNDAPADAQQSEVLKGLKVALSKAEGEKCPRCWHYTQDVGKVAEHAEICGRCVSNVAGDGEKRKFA
T7 sequence (B4RNT1 whole entry): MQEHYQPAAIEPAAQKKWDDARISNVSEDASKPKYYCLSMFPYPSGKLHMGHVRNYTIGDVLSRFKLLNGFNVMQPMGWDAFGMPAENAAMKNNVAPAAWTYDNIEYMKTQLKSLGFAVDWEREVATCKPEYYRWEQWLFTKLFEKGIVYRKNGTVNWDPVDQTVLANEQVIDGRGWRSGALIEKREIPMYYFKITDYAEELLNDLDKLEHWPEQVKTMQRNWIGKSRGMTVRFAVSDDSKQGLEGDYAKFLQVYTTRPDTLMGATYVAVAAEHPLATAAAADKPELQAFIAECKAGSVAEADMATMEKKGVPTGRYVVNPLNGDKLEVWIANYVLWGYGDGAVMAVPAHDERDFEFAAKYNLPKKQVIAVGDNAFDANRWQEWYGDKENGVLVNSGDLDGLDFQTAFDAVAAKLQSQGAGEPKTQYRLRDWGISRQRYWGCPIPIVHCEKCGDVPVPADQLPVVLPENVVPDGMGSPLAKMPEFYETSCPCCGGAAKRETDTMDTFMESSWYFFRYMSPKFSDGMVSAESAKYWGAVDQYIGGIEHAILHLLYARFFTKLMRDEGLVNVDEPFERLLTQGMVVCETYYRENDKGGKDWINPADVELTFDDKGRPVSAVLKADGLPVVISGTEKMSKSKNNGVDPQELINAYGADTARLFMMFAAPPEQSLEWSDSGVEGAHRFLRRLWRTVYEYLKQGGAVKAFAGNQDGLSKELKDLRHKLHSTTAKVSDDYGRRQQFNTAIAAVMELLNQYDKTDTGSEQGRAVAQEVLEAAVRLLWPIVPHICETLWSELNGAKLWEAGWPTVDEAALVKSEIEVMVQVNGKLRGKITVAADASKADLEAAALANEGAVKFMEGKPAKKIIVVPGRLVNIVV

Consider `Nc1cc(CO)cc2ncn([C@@H]3O[C@H](COS(=O)(=O)NC(=O)[C@@H](N)CC(=O)O)[C@@H](O)[C@H]3O)c12` [32d, 3-Amino-4-((((5-(7-Amino-5-(Hydroxymethyl)-1H-Benzo[d]imidazol-1-yl)-3,4-Dihydroxytetrahydrofuran-2-yl)methoxy)sulfonyl)amino)-4-Oxobutanoic Acid], for which the “X-ray crystal structure (2.15 Å), soaked crystals” value on AspRS was “T. thermophilus AspRS in complex with AspS7HMDDA”. In turn, `CC[C@H](C)[C@H](N)C(=O)NS(=O)(=O)OC[C@H]1O[C@@H](n2cnc3cc(CO)cc(N)c32)[C@@H](O)[C@@H]1O` [32f, (2R,3S,4S,5R)-(5-(7-Amino-5-(Hydroxymethyl)-1H-Benzo[d]imidazol-1-yl)-3,4-Dihydroxytetrahydrofuran-2-yl)methyl Isoleucylsulfamate] had a Ki on IleRS of 10.8 ± 0.8 nM.

As for `Nc1cc(CO)cc2ncn([C@@H]3O[C@H](COS(=O)(=O)NC(=O)[C@@H](N)Cc4ccc(O)cc4)[C@@H](O)C3O)c12` (stereo in doubt) [32b, (2R,3S,4S,5R)-(5-(7-Amino-5-(Hydroxymethyl)-1H-Benzo[d]imidazol-1-yl)-3,4-Dihydroxytetrahydrofuran-2-yl)methyl Tyrosylsulfamate], the Ki on TyrRS was determined as 1230 ± 239 nM. One may read the inhibition as how much of the control response was suppressed. The compound `Nc1cc(CO)cc2ncn([C@@H]3O[C@H](COS(=O)(=O)NC(=O)[C@@H](N)CO)[C@@H](O)C3O)c12` (stereo in doubt) [32c, (2R,3S,4S,5R)-(5-(7-Amino-5-(Hydroxymethyl)-1H-Benzo[d]imidazol-1-yl)-3,4-Dihydroxytetrahydrofuran-2-yl)methyl Serylsulfamate] displayed an inhibition at 200 µM at SerRS [1] of 54%. Moreover, the “X-ray crystal structure (2.18 Å), soaked crystals” value at SerRS [2] was “K. pneumoniae SerRS in complex with SerS7HMDDA”.

In the case of `CC(C)C[C@H](N)C(=O)NS(=O)(=O)OC[C@H]1O[C@@H](n2cnc3cc(CO)cc(N)c32)C(O)[C@@H]1O` (stereo in doubt) [32e, (2R,3S,4S,5R)-(5-(7-Amino-5-(Hydroxymethyl)-1H-Benzo[d]imidazol-1-yl)-3,4-Dihydroxytetrahydrofuran-2-yl)methyl Leucylsulfamate], at LeuRS [3], the Ki came out at 21.5 ± 1.2 nM. At LeuRS [4], the “X-ray crystal structure (2.25 Å), soaked crystals” value is reported as “N. gonorrhoeae LeuRS in complex with LeuS7HMDDA”.

The values are drawn from publication PMC7587597, “Synthesis and Biological Evaluation of 1,3-Dideazapurine-Like 7-Amino-5-Hydroxymethyl-Benzimidazole Ribonucleoside Analogues as Aminoacyl-tRNA Synthetase Inhibitors” (Molecules, 2020).
